Legend:
HDAC10 = HDAC10 (Homo sapiens, UniProt Q969S8); experiment: Deacetylation activity selectivity, HDAC10; type: biochemical
Description: (§1) Based on the above results, 8a was further investigated in this study. […] To further evaluate the selectivity of 8a for SIRT6, we examined the effect of 8a on the deacetylation activity of other HDAC family members, including HDAC1-HDAC11, SIRT1-SIRT3 and SIRT5. […] Furthermore, to confirm binding of 8a to SIRT6 in cells, we carried out the cellular thermal shift assay (CETSA). The CETSA approach builds on the thermal shift assay concept where ligand binding to its target protein enhances the target protein stability. We observed that the thermal stability of SIRT6 increased after 8a treatment (Figs. 2c, d).

HDAC8 = HDAC8 (Homo sapiens, UniProt Q9BY41); experiment: Deacetylation activity selectivity, HDAC8; type: biochemical
HDAC8, sequence (Q9BY41 whole entry, species assumed): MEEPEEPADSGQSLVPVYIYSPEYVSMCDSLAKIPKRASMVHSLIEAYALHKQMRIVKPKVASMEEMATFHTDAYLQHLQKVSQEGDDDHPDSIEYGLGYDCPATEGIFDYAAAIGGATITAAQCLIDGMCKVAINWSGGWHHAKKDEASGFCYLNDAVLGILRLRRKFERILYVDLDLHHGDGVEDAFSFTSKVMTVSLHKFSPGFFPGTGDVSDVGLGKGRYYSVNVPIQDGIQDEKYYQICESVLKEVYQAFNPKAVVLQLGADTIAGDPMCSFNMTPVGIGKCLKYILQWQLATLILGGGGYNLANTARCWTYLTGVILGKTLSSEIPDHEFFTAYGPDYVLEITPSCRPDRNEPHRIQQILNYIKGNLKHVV
Description: as §1

SIRT6 [1] = target: T1, SIRT6 (Homo sapiens, UniProt Q8N6T7); experiment: Fluor-De-Lys (FDL) SIRT6 deacetylation assay; type: biochemical; parameters: The human full-length SIRT6 gene was inserted into the prokaryotic expression vector (pET-28a (+)); inferred from the pET-28a(+) vector, Ni-NTA purification and Ni-NTA biosensor loading); made in house; host or cells: Escherichia coli BL21 (DE3)
T1 sequence (Q8N6T7 whole entry): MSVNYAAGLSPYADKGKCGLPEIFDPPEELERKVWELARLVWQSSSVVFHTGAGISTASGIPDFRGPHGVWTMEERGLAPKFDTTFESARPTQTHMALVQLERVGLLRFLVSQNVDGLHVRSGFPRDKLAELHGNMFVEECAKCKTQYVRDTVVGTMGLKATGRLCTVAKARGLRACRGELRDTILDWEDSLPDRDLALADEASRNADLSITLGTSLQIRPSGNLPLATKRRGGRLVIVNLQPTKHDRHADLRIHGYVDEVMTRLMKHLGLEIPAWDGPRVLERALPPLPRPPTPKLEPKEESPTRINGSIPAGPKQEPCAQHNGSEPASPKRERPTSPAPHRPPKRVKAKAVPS

HDAC11 = HDAC11 (Homo sapiens, UniProt Q96DB2); experiment: Deacetylation activity selectivity, HDAC11; type: biochemical
HDAC11, sequence (Q96DB2 whole entry, species assumed): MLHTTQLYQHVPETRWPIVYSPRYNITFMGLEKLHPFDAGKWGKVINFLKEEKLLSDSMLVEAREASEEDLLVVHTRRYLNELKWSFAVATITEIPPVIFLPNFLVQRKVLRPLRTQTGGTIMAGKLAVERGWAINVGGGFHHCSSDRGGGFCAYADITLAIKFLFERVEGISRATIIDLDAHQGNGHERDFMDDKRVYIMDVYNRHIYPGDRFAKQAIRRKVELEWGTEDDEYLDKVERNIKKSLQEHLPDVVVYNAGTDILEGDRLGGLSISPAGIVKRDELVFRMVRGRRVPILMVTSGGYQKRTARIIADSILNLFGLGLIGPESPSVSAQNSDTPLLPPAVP
Description: as §1

NIT-1 cells = experiment: Cell glucose uptake assay, NIT-1; type: cell-based; conditions: NIT-1, 8a (3.125, 6.25, 12.5 μM) + insulin (100 nM) vs insulin only, 30 min
Protocol: The NIT-1 and β-TC-6 cells were added to the wells of 12-well plates and incubated overnight. Then the culture medium without FBS was incubated for 6 h, and different concentrations of 8a (3.125, 6.25, 12.5 μM), insulin (100 nM) or their combination were added for 30 min. Glucose uptake was determined using a Glucose Uptake Assay Kit (Jiancheng, Nanjing).

SIRT1 = SIRT1 (Homo sapiens, UniProt Q96EB6); experiment: Deacetylation activity selectivity, SIRT1; type: biochemical
SIRT1, sequence (Q96EB6 whole entry, species assumed): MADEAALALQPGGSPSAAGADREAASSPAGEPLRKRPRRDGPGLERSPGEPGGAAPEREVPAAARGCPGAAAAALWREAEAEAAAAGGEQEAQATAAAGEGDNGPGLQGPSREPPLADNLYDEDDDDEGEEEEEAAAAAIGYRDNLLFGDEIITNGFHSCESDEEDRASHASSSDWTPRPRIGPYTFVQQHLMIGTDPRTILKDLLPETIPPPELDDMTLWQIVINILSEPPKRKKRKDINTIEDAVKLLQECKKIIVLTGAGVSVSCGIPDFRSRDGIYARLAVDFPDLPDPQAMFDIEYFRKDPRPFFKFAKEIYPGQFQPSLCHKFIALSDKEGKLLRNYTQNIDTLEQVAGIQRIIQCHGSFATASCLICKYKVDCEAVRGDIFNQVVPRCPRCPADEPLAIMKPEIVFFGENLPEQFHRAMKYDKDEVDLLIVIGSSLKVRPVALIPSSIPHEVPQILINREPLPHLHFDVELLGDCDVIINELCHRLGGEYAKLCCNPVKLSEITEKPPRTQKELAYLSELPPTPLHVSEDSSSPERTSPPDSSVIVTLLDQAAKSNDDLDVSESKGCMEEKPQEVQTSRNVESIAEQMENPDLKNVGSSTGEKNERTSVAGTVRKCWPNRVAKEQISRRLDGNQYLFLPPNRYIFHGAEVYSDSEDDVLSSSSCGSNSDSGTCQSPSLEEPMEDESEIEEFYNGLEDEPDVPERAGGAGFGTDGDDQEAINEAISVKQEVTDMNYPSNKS
Protocol: (§2) Fluor-De-Lys (FDL) assays were used for the examination of the deacetylation activities of sirtuins as described previously. For the detection of SIRT6 activity, the 50-μL reaction mixture contained 5 μM SIRT6, 2.5 mM NAD^+ (β-Nicotinamide adenine dinucleotide hydrate, Sigma, N1636), 75 μM RHKK-Ac-AMC (GL Biochem, Shanghai), compounds/DMSO, and assay buffer. The reactions were incubated at 37 °C for 2 h, added 50 μL stop solution (40 mM nicotinamide, 6 mg/mL trypsin) at 25 °C for 30 min. Fluorescence intensity was measured at an excitation wavelength of 360 nm and an emission wavelength of 460 nm. IC50 values were calculated in GraphPad Prism version 8.00.
as §1

SIRT6 [2] = target: T1, SIRT6; experiment: Cellular thermal shift assay (CETSA) in Hela cells; type: cell-based; parameters: endogenous in cells; host or cells: HeLa; conditions: 8a 25 μM, 6 h
Protocol: The CETSA [26] approach builds on the thermal shift assay concept where ligand binding to its target protein affects protein stability at high temperatures. Hela cells were plated in 100 mm plates. After 12 h attachment, Hela cells were incubated with 8a (25 μM) for 6 h, and then the cells were digested with trypsin and collected. The collected cells were subsequently aliquoted into […], and incubated each part at different temperatures (40, 41, 42, 43, 44, 45, 46, 47, 48, 49 and 50 °C) for 3 min. The heated cells were then snap frozen in liquid nitrogen three times to lyse. After that, the lysed cells were then centrifuged at 12,000 rpm for 20 min. Then the level of SIRT6 was detected by western blot.

SIRT6 [3] = target: T1, SIRT6; experiment: Fluor-De-Lys (FDL) SIRT6 deacetylation assay; type: biochemical; parameters: The human full-length SIRT6 gene was inserted into the prokaryotic expression vector (pET-28a (+)); inferred from the pET-28a(+) vector, Ni-NTA purification and Ni-NTA biosensor loading); made in house; host or cells: Escherichia coli BL21 (DE3); remark: listed apart in the source
Protocol: The human full-length SIRT6 gene was inserted into the prokaryotic expression vector (pET-28a (+)). The verified recombinant plasmid was transformed into Escherichia coli BL21 (DE3) expression strain and cultured overnight at 37 °C on LB plates supplemented with 50 μg/mL kanamycin. Single colonies were inoculated in fluid kanamycin-containing LB mediums. It was shaken at 160 rpm for 16 h at 37 °C and transferred to kanamycin-containing LB medium at a ratio of 1:100. It was shaken at 160 rpm at 37 °C until the OD600 reached 0.6. The Isopropyl-β-d-thiogalactopyranoside was added to make the final concentration of solution 0.5 mmol/L, cultured for 15 °C and 160 rpm for 24 h.
Bacterial liquid was harvested at 12,000 rpm at 4 °C for 20 min, and then re-suspended in Lysis buffer (20 mmol/L Hepes pH 7.5, 20 mmol/L imidazole, 5% Glycerol, 500 mmol/L NaCl). Cell pellets were disrupted by high-pressure crusher (JNBIO, Guangzhou China) and centrifuged (4 °C, 12000 rpm, for 20 min). Supernatant was collected and purified by FPLC with a 1 mL Ni–NTA Sepharose column (GE Healthcare, Stamford, USA). The SIRT6 protein was eluted at containing 50 mM, 100 mM, 150 mM, 200 mM, and 500 mM imidazole in elution buffer. The purified SIRT6 protein was dialyzed in dialysis buffer (50 mM Tris-HCl, 137 mM NaCl, 2.7 mM KCl, 1 mM MgCl2). The purified SIRT6 protein was analyzed by SDS-PAGE.
as §2

SIRT3 = SIRT3 (Homo sapiens, UniProt Q9NTG7); experiment: Deacetylation activity selectivity, SIRT3; type: biochemical
SIRT3, sequence (Q9NTG7 whole entry, species assumed): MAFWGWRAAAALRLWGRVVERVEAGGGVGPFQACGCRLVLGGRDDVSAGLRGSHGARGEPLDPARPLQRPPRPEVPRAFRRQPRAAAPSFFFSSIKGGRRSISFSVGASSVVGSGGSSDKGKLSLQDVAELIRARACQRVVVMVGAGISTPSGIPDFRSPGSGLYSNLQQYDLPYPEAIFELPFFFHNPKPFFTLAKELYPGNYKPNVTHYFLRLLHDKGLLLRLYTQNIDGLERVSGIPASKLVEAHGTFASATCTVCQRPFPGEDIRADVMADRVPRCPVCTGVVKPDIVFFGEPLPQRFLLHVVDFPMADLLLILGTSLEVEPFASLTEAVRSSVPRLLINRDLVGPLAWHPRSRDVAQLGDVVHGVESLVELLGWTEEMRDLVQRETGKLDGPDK
Protocol: as §2, §1

HUVEC cells = experiment: MTT cytotoxicity, normal HUVEC cells; type: cell-based; conditions: 72 h
[4] = Lineweaver–Burk plot, RHKK-Ac-AMC and NAD+ substrates

HDAC10, sequence (Q969S8 whole entry, species assumed): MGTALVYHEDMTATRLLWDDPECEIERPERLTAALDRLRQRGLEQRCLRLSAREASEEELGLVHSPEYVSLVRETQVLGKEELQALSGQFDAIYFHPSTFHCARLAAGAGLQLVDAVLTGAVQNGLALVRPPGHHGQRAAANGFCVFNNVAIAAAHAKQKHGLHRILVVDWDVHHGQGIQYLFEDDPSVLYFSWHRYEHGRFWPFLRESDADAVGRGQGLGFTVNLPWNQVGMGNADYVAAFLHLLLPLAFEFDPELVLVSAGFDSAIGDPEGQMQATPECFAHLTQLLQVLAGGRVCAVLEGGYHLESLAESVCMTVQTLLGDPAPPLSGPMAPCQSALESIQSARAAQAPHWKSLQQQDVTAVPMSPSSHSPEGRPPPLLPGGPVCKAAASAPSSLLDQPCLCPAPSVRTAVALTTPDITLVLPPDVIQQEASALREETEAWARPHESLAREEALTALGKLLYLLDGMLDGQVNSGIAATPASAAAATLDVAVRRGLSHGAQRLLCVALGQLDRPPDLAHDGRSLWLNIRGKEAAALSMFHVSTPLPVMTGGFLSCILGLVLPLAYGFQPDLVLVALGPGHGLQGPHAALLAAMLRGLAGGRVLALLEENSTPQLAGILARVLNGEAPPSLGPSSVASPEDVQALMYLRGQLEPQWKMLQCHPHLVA

IC50 (HDAC10): > 200 µM
IC50 (HDAC8): 102 ± 2.01 µM
Km (SIRT6 [1]; [4]): did not alter
Vmax (SIRT6 [1]; [4]): obviously decreased
inhibition mode (SIRT6 [1]; competition and enzymatic kinetic assays): non-competitive inhibitor
IC50 (HDAC11): > 200 µM
glucose uptake (NIT-1 cells): no significant effect
IC50 (SIRT1): 80.5 ± 1.91 µM
thermal stability of SIRT6 (SIRT6 [2]): increased
IC50 (SIRT6 [3]): 7.46 ± 0.79 µM
Inhibition rate (%) (SIRT6 [3]; fixed concentration of 25 μM, RHKK-Ac-AMC, NI = no inhibition): 75.6%
IC50 (SIRT3): > 200 µM
SMILES: Br.CN(C)C(SCCCCCCn1cnc2c(-c3cc(Br)c(Br)[nH]3)nccc21)=[N+](C)C.[Cl-] [Compound 8a]
IC50 (HUVEC cells): 41 µM
